Experiments:
Set-up in all cases: species or system athymic female NCR-Nu Mice
[1] = test system: MCF-7(ER+) breast tumor xenografts; assay: In vivo localization (biodistribution) in athymic female nude mice bearing subcutaneous MCF-7 tumor xenografts; settings: for Percent Injected Dose/Gram, blood / Percent Injected Dose/Gram, fat / Percent Injected Dose/Gram, kidney / Percent Injected Dose/Gram, liver / Percent Injected Dose/Gram, muscle / Percent Injected Dose/Gram, spleen / Percent Injected Dose/Gram, tumor / Percent Injected Dose/Gram, uteri: tail vein, subcutaneous MCF-7, mean, n = 5
Description: (§1) In vivo localization of 11β-ethyl-17α-(Z)-[^125 I](iodovinyl)estra-3,17β-diol (5) and a control compound 16α-[^125 I]iodovinyl-3,17β-estradiol (commercially available from DuPont New England Nuclear, MA) was determined in athymic female NCR-Nu Mice (purchased from Simonsen Laboratories, Gilroy, Calif.) bearing subcutaneous MCF-7(ER+) breast tumor xenografts. Prior to injection of the compounds, the mice were each implanted with fragments of MCF-7 breast tumor (approximately 2 cubic millimeters) in the subcutis of the left flank. At approximately the same time, a 1.7 mg estradiol pellet (Innovative Research of America, Toledo, Ohio) was implanted in the scapular region. The tumors were allowed to grow until they reached between 50 and 200 mg by visual inspection (approximately four to five weeks) prior to injection of the test compounds. One day prior to injection of the test compounds, the estradiol pellet was removed.
(§2) The mice were each injected via tail vein with between 3 (1.1×10^5 Bq) and 6 μCi ([…]) ^125 I in approximately 50 μL of phosphate buffered saline. The mice were sacrificed at various time intervals. After exsanguination, the selected organ/tissue were excised, weighed and radioactivity measured in a gamma counter. The counts per minute (cpm) of 125I in each tissue was determined and expressed as cpm per gram of tissue per injected dose multiplied by 100 (percent injected dose/gram).

[2] = test system: MCF-7 tumors located intraperitoneally; assay: In vivo localization (biodistribution) in athymic female nude mice bearing intraperitoneal MCF-7 tumors; settings: for Percent Injected Dose/Gram, blood / Percent Injected Dose/Gram, fat / Percent Injected Dose/Gram, kidney / Percent Injected Dose/Gram, liver / Percent Injected Dose/Gram, muscle / Percent Injected Dose/Gram, spleen / Percent Injected Dose/Gram, tumor / Percent Injected Dose/Gram, uteri: tail vein, intraperitoneal MCF-7, mean, n = 5
Description: as §1, §2
The procedure of Example 3 was followed except each mouse was inoculated intraperitoneally with MCF-7 breast carcinoma cell line (7.5×10^6 cell/50 μL) rather than implanted subcutaneously with MCF-7 breast tumor. One day prior to this procedure, a 1.7 mg estradiol pellet was implanted subcutaneously in the scapular region. The tumor cells were allowed to form solid tumor nodules for 4 to 6 weeks prior to injection of the test compounds.

[3] = test system: MCF-7(ER+) breast tumor xenografts; assay: In vivo biolocalization with gamma detecting probe, tumor/background ratio, MCF-7 (ER+) tumor; settings: for Tumor/Background Ratio (Tu/Bkg): MCF-7 tumor, foreleg background, n = 5
Description: (§3) In vivo biolocalization of 11β-ethyl-17α-(Z)-[^125 I](iodovinyl)estra-3,17β-diol (5) and a control compound 16α-[^125 I](iodovinyl)-3,17β-estradiol was determined in athymic female NCR-Nu Mice bearing subcutaneous MCF-7(ER+) breast tumor xenografts and MDA-MB-231 (ER-) breast tumor xenografts. The mice were at least 5 weeks old prior to injection into the right-hand flank with […] of MCF-7 breast carcinoma cells ([…]). One day prior to this procedure, the mice were implanted subcutaneously with a 1.7 mg estradiol pellet in the scapular region. Four to six weeks post-injection of the MCF-7 cells the estradiol pellet was removed and the mice inoculated in the left hind flank with 75 μL NDA-MB-231 breast tumor cells ([…]). Seven to ten days prior to injection of the test compounds, an estradiol pellet was again implanted in the scapular region. One to two days prior to injection of the test compounds, the estradiol pellet was removed, and 5 mice arbitrarily assigned to each test group.
(§4) The mice were each injected via tail vein with between 3 ([…]) and […] ([…]) 125 iodine in approximately […] of phosphate-buffered saline. At various time intervals after injection of the test compounds, each group of mice was anesthetized with methoxyflurane in order to measure the radioactivity over the ER+ and ER- tumors and the front leg for use as a background and the thoraxic area which served as a blood pool control using a gamma detecting probe (RIGS ^TM Model 1001 control unit, Neoprobe Corporation, Columbus, Ohio). Three 20 to 60 second counts were recorded at each area measured at each time point.
(§5) ^c Tu/Bkg = Mean(1-5) of (mean tumor countsn - mean foreleg
(§6) background countsn)/mean foreleg background

[4] = test system: MDA-MB-231 (ER-) breast tumor xenografts; assay: In vivo biolocalization with gamma detecting probe, tumor/background ratio, MDA-MB-231 (ER-) tumor; settings: MDA-MB-231 tumor, foreleg background, n = 5
Description: as §3, §4, §5, §6

C[C@]12CC[C@@H]3c4ccc(O)cc4CC[C@H]3[C@@H]1C[C@@H]([125I])[C@@H]2O [16α-Iodo-[^125 I]-3,17β-Estradiol]
radioactivity in the uteri and tumors ([1]; 48 hours post-injection, uteri and tumors, subcutaneous MCF-7): no radioactivity defected
Percent Injected Dose/Gram, blood ([1]; 10-12 hours): 0.16 Percent Injected Dose/Gram
Percent Injected Dose/Gram, blood ([1]; 2 hours): 0.59 Percent Injected Dose/Gram
Percent Injected Dose/Gram, blood ([1]; 6 hours): 0.58 Percent Injected Dose/Gram
Percent Injected Dose/Gram, blood ([1]; 24 hours): 0.03 Percent Injected Dose/Gram
Percent Injected Dose/Gram, blood ([1]; 48 hours): 0.01 Percent Injected Dose/Gram
Percent Injected Dose/Gram, fat ([1]; 10-12 hours): 0.00 Percent Injected Dose/Gram
Percent Injected Dose/Gram, fat ([1]; 2 hours): 0.88 Percent Injected Dose/Gram
Percent Injected Dose/Gram, fat ([1]; 6 hours): 0.25 Percent Injected Dose/Gram
Percent Injected Dose/Gram, fat ([1]; 24 hours): 0.00 Percent Injected Dose/Gram
Percent Injected Dose/Gram, fat ([1]; 48 hours): 0.00 Percent Injected Dose/Gram
Percent Injected Dose/Gram, kidney ([1]; 10-12 hours): 0.10 Percent Injected Dose/Gram
Percent Injected Dose/Gram, kidney ([1]; 2 hours): 0.64 Percent Injected Dose/Gram
Percent Injected Dose/Gram, kidney ([1]; 6 hours): 0.37 Percent Injected Dose/Gram
Percent Injected Dose/Gram, kidney ([1]; 24 hours): 0.00 Percent Injected Dose/Gram
Percent Injected Dose/Gram, kidney ([1]; 48 hours): 0.00 Percent Injected Dose/Gram
Percent Injected Dose/Gram, liver ([1]; 10-12 hours): 0.55 Percent Injected Dose/Gram
Percent Injected Dose/Gram, liver ([1]; 2 hours): 3.33 Percent Injected Dose/Gram
Percent Injected Dose/Gram, liver ([1]; 6 hours): 1.93 Percent Injected Dose/Gram
Percent Injected Dose/Gram, liver ([1]; 24 hours): 0.09 Percent Injected Dose/Gram
Percent Injected Dose/Gram, liver ([1]; 48 hours): 0.06 Percent Injected Dose/Gram
Percent Injected Dose/Gram, muscle ([1]; 10-12 hours): 0.00 Percent Injected Dose/Gram
Percent Injected Dose/Gram, muscle ([1]; 2 hours): 0.07 Percent Injected Dose/Gram
Percent Injected Dose/Gram, muscle ([1]; 6 hours): 0.05 Percent Injected Dose/Gram
Percent Injected Dose/Gram, muscle ([1]; 24 hours): 0.00 Percent Injected Dose/Gram
Percent Injected Dose/Gram, muscle ([1]; 48 hours): 0.00 Percent Injected Dose/Gram
Percent Injected Dose/Gram, spleen ([1]; 10-12 hours): 0.05 Percent Injected Dose/Gram
Percent Injected Dose/Gram, spleen ([1]; 2 hours): 0.28 Percent Injected Dose/Gram
Percent Injected Dose/Gram, spleen ([1]; 6 hours): 0.25 Percent Injected Dose/Gram
Percent Injected Dose/Gram, spleen ([1]; 24 hours): 0.00 Percent Injected Dose/Gram
Percent Injected Dose/Gram, spleen ([1]; 48 hours): 0.00 Percent Injected Dose/Gram
Percent Injected Dose/Gram, tumor ([1]; 10-12 hours): 0.09 Percent Injected Dose/Gram
Percent Injected Dose/Gram, tumor ([1]; 2 hours): 0.91 Percent Injected Dose/Gram
Percent Injected Dose/Gram, tumor ([1]; 6 hours): 0.41 Percent Injected Dose/Gram
Percent Injected Dose/Gram, tumor ([1]; 24 hours): 0.00 Percent Injected Dose/Gram
Percent Injected Dose/Gram, tumor ([1]; 48 hours): 0.00 Percent Injected Dose/Gram
Percent Injected Dose/Gram, uteri ([1]; 10-12 hours): 0.38 Percent Injected Dose/Gram
Percent Injected Dose/Gram, uteri ([1]; 2 hours): 2.81 Percent Injected Dose/Gram
Percent Injected Dose/Gram, uteri ([1]; 6 hours): 1.02 Percent Injected Dose/Gram
Percent Injected Dose/Gram, uteri ([1]; 24 hours): 0.02 Percent Injected Dose/Gram
Percent Injected Dose/Gram, uteri ([1]; 48 hours): 0.00 Percent Injected Dose/Gram
radioactivity in the uteri and tumors ([2]; 48 hours post-injection, uteri and tumors, intraperitoneal MCF-7): no radioactivity defected
Percent Injected Dose/Gram, blood ([2]; 10-12 hours): 0.50 Percent Injected Dose/Gram
Percent Injected Dose/Gram, blood ([2]; 2 hours): 0.84 Percent Injected Dose/Gram
Percent Injected Dose/Gram, blood ([2]; 6 hours): 0.74 Percent Injected Dose/Gram
Percent Injected Dose/Gram, blood ([2]; 24 hours): 0.06 Percent Injected Dose/Gram
Percent Injected Dose/Gram, blood ([2]; 48 hours): 0.03 Percent Injected Dose/Gram
Percent Injected Dose/Gram, fat ([2]; 10-12 hours): 0.01 Percent Injected Dose/Gram
Percent Injected Dose/Gram, fat ([2]; 2 hours): 0.92 Percent Injected Dose/Gram
Percent Injected Dose/Gram, fat ([2]; 6 hours): 0.14 Percent Injected Dose/Gram
Percent Injected Dose/Gram, fat ([2]; 24 hours): 0.00 Percent Injected Dose/Gram
Percent Injected Dose/Gram, fat ([2]; 48 hours): 0.00 Percent Injected Dose/Gram
Percent Injected Dose/Gram, kidney ([2]; 10-12 hours): 0.24 Percent Injected Dose/Gram
Percent Injected Dose/Gram, kidney ([2]; 2 hours): 0.83 Percent Injected Dose/Gram
Percent Injected Dose/Gram, kidney ([2]; 6 hours): 0.41 Percent Injected Dose/Gram
Percent Injected Dose/Gram, kidney ([2]; 24 hours): 0.03 Percent Injected Dose/Gram
Percent Injected Dose/Gram, kidney ([2]; 48 hours): 0.00 Percent Injected Dose/Gram
Percent Injected Dose/Gram, liver ([2]; 10-12 hours): 0.84 Percent Injected Dose/Gram
Percent Injected Dose/Gram, liver ([2]; 2 hours): 6.54 Percent Injected Dose/Gram
Percent Injected Dose/Gram, liver ([2]; 6 hours): 5.37 Percent Injected Dose/Gram
Percent Injected Dose/Gram, liver ([2]; 24 hours): 0.15 Percent Injected Dose/Gram
Percent Injected Dose/Gram, liver ([2]; 48 hours): 0.08 Percent Injected Dose/Gram
Percent Injected Dose/Gram, muscle ([2]; 10-12 hours): 0.00 Percent Injected Dose/Gram
Percent Injected Dose/Gram, muscle ([2]; 2 hours): 0.12 Percent Injected Dose/Gram
Percent Injected Dose/Gram, muscle ([2]; 6 hours): 0.07 Percent Injected Dose/Gram
Percent Injected Dose/Gram, muscle ([2]; 24 hours): 0.00 Percent Injected Dose/Gram
Percent Injected Dose/Gram, muscle ([2]; 48 hours): 0.00 Percent Injected Dose/Gram
Percent Injected Dose/Gram, spleen ([2]; 10-12 hours): 0.15 Percent Injected Dose/Gram
Percent Injected Dose/Gram, spleen ([2]; 2 hours): 0.34 Percent Injected Dose/Gram
Percent Injected Dose/Gram, spleen ([2]; 6 hours): 0.36 Percent Injected Dose/Gram
Percent Injected Dose/Gram, spleen ([2]; 24 hours): 0.01 Percent Injected Dose/Gram
Percent Injected Dose/Gram, spleen ([2]; 48 hours): 0.00 Percent Injected Dose/Gram
Percent Injected Dose/Gram, tumor ([2]; 10-12 hours): 0.40 Percent Injected Dose/Gram
Percent Injected Dose/Gram, tumor ([2]; 2 hours): 1.35 Percent Injected Dose/Gram
Percent Injected Dose/Gram, tumor ([2]; 6 hours): 0.75 Percent Injected Dose/Gram
Percent Injected Dose/Gram, tumor ([2]; 24 hours): 0.02 Percent Injected Dose/Gram
Percent Injected Dose/Gram, tumor ([2]; 48 hours): 0.00 Percent Injected Dose/Gram
Percent Injected Dose/Gram, uteri ([2]; 10-12 hours): 0.45 Percent Injected Dose/Gram
Percent Injected Dose/Gram, uteri ([2]; 2 hours): 2.89 Percent Injected Dose/Gram
Percent Injected Dose/Gram, uteri ([2]; 6 hours): 1.09 Percent Injected Dose/Gram
Percent Injected Dose/Gram, uteri ([2]; 24 hours): 0.02 Percent Injected Dose/Gram
Percent Injected Dose/Gram, uteri ([2]; 48 hours): 0.00 Percent Injected Dose/Gram
Tumor/Background Ratio (Tu/Bkg) ([3]; 10-12 hours): 4.46 ± 1.44
Tumor/Background Ratio (Tu/Bkg) ([3]; 2 hours): 12.73
Tumor/Background Ratio (Tu/Bkg) ([3]; 6 hours): 9.58 ± 4.69
Tumor/Background Ratio (Tu/Bkg) ([3]; 24 hours): 1.13 ± 0.16
Tumor/Background Ratio (Tu/Bkg) ([3]; 48 hours): 0.13 ± 0.08
tumor to background ratios / localization at the tumor site (in words) ([3]; after 10 to 12 hours): not being maintained or localized at the tumor site
tumor to background ratios (in words) ([3]; at 10 to 12 hours): good tumor to background ratios
Tumor/Background Ratio (Tu/Bkg) ([4]; 10-12 hours): 2.51 ± 1.40
Tumor/Background Ratio (Tu/Bkg) ([4]; 2 hours): 10.96
Tumor/Background Ratio (Tu/Bkg) ([4]; 6 hours): 6.23 ± 3.02
Tumor/Background Ratio (Tu/Bkg) ([4]; 24 hours): 0.85 ± 0.29
Tumor/Background Ratio (Tu/Bkg) ([4]; 48 hours): 0.08 ± 0.19
